Data on 18 compounds can be found in patent publication US20230295106A1 (priority 2019, published 2023).

The structures appear in SMILES notation. Read-outs that look alike come from different tables or passages of the source. Some results are limits rather than exact numbers.

Assay [1] deals with T1, 5-HT2A (Homo sapiens, UniProt P28223). Description: Serotonin 5-HT2A in vitro cellular IPOne agonism assay (HTRF). Also noted: host or cells: CHO-K1. It counts as cell-based.
The target of assay [2] is T1, 5-HT2A. The assay can be described thus: Serotonin 5-HT2A in vitro radioligand binding competition assay ([3H]-DOI). Also noted: Epics Therapeutics S.A. (Belgium) FAST-0505B; host or cells: membrane extracts.
For a further assay, the system named is rat cortical neurons. Description: Neurite outgrowth in primary neuronal cultures assay. It counts as cell-based. Also noted: key: A: Statistically significant mean increase as a percent of DMSO control at 10 μM or less; B: No statistically significant mean increase as a percent of DMSO control at 10 μM or less. As to conditions: 72 h, vs DMSO control, at 10 μM or less. From the text: Neurite Outgrowth in Primary Neuronal Cultures Assay. Changes in the pattern of neurite outgrowth have been implicated in psychiatric and neurodegenerative disorders as well as traumatic injuries. The discovery of new compounds that can positively affect neuritogenesis are important for developing new therapeutics for neurological diseases. Measurement of neurite outgrowth of rat cortical neurons using an automated image-based assay was used to determine the neuroplastic effects of the compounds of the present invention. The neurite outgrowth assay was performed at Neurofit SAS (France) as described below.
Pregnant Wistar rats (Janvier; France) were used for the study. They were delivered 6 days before their use. Upon arrival at Neurofit animal facility, they were housed one per cage and maintained in a room with controlled temperature (21-22° C.) and a reversed light-dark cycle (12 h/12 h; lights on: 17:30-05:30; lights off: 05:30-17:30) with food and water available ad libitum.
Female Wistar rats of 17 days gestation were killed by cervical dislocation and the fetuses were removed from the uterus. Their brains were placed in ice-cold medium of Leibovitz (L15, Gibco, Fisher bioblock, France). Cortices were dissected and meninges were carefully removed. The cortical neurons were dissociated by trypsinization for 30 min at 37° C. (trypsin-EDTA, Gibco) in presence of 0.1 mg/ml DNAse I (Roche, France). The reaction was stopped by addition of Dulbecco's Modified Eagle Medium (DMEM; Gibco) with 10% of fetal bovine serum (FBS; Gibco). The suspension was triturated with a 10-ml pipette and using a needle syringe 21 G and centrifuged at 350×g for 10 min at room temperature. The pellet of dissociated cells was resuspended in a medium consisting of Neurobasal (Gibco) supplemented with 2% B27 supplement (Gibco), 0.5 mM L-Glutamine (Gibco), an antibiotic-antimicotic mixture. Viable cells were counted in a Neubauer cytometer using the trypan blue exclusion test (Sigma). Cells were seeded at a density of 10000 cells per well in 96-well plate (Costar) precoated with poly-L-lysine. Test compound at different concentrations were added to the cultures. Donepezil (positive control) was tested at 250 nM.
After 72 h (3 days) of plating, cultures were fixed with paraformaldehyde in PBS (4%, Sigma) for 30 min at 4° C. Then, cells were successively permeabilized with 0.1% Triton X100 for 30 min, saturated with PBS containing 3% of BSA and were incubated 1 h with anti-beta III tubulin antibody (Sigma) at 1/10000 in PBS containing 0.5% of BSA. Cells were washed three times with PBS containing 0.5% of BSA, and they were incubated 1 h with goat anti-mouse antibody coupled with AF488 (Invitrogen A11001) diluted at 1/1000 in PBS containing 0.5% of BSA. Finally, nuclei were staining with DAPI 1 mg/ml at 1/1000 in PBS containing 0.5% of BSA. After rinsing with PBS, the plate was filmed and neurite networks were examined and analyzed using High-Content Screening (CellInsight, Thermo Scientific). The average number of neurites per neuron and the average total length of neurites per neuron were the main parameters analyzed. Analysis of data was performed using analysis of variance (ANOVA). The Fisher's Protected Least Significant Difference test was used for multiple comparisons. A p value <0.05 was considered significant. The software used is StatView 5.0 from SAS Institut.

Where [3] appears, read: 5-HT2A IPOne Agonism Activity, CHO-K1 cells, 60 min at 37° C.
[4] abbreviates: 5-HT2A Radioligand Binding Activity, competition with [3H]-DOI, membrane extracts.

T1 sequence (P28223 whole entry): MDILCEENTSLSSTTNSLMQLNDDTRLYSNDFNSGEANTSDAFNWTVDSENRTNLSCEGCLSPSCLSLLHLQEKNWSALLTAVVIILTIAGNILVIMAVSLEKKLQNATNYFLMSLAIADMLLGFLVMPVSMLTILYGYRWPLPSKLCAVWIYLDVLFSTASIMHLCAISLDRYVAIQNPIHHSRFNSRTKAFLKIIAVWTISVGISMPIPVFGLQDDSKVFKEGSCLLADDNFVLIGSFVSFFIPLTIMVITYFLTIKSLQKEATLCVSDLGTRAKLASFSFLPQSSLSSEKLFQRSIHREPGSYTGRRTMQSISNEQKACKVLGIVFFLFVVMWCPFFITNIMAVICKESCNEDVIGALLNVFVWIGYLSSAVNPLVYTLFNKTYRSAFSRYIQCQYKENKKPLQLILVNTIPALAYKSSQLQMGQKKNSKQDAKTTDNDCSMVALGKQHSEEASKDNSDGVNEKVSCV

At 5-HT2A [1], `COc1cc2c3c(ccn3CC(N)C2)c1` (stereo not shown) [Compound 25, 8-methoxy-5,6-dihydro-4H-pyrrolo[3,2,1-ij]quinolin-5-amine] displayed an EC50 above 10000 nM. Besides, the IC50 at 5-HT2A [2] was above 10000 nM.
On to `CCN(CC)C(=O)[C@@H]1C=C(c2cccc3[nH]ccc23)CN(C)C1` (single isomer, unassigned) [Compound 12, N,N-diethyl-5-(1H-indol-4-yl)-1-methyl-1,2,3,6-tetrahydropyridine-3-carboxamide], for which, in the assay with rat cortical neurons, the “Increase in Neurite Length” value was “A” and the “Increase in Neurite Number” value is recorded as “A”.
For `NC1Cc2cc(F)cc3ccn(c23)C1` (stereo not shown) [Compound 17, 8-fluoro-5,6-dihydro-4H-pyrrolo[3,2,1-ij]quinolin-5-amine], the EC50 at 5-HT2A [1] was above 10000 nM. Also, the IC50 on 5-HT2A [2] is 1000 to 10000 nM.
For the compound `CCN(CC)C(=O)[C@@H]1C=C(c2cccc(OC)c2)CN(C)C1` (single isomer, unassigned) [Compound 9, N,N-diethyl-5-(3-methoxyphenyl)-1-methyl-1,2,3,6-tetrahydropyridine-3-carboxamide], in the assay with rat cortical neurons, the “Increase in Neurite Length” value is on record as “A” and the “Increase in Neurite Number” value is given as “A”. The compound further returned an EC50 on 5-HT2A [1] (setting [3]) of 10 to 100 nM. This compound showed an IC50 at 5-HT2A [2] (setting [4]) of 10 to 100 nM.
As for `CCN(CC)C(=O)[C@@H]1C=C(c2cccc(OC)c2)CN(C)C1` (single isomer, unassigned) [Compound 10, N,N-diethyl-5-(3-methoxyphenyl)-1-methyl-1,2,3,6-tetrahydropyridine-3-carboxamide], in the assay on rat cortical neurons, the “Increase in Neurite Length” value is listed as “A” and the “Increase in Neurite Number” value was “A”. This compound came in with an EC50 on 5-HT2A [1] (setting [3]) of 101 to 1000 nM. The IC50 at 5-HT2A [2] (setting [4]) is 101 to 1000 nM.
`NC1Cc2c(Cl)ccc3ccn(c23)C1` (stereo not shown) [Compound 23, 7-chloro-5,6-dihydro-4H-pyrrolo[3,2,1-ij]quinolin-5-amine] yielded an EC50 on 5-HT2A [1] of 1000 to 10000 nM. Also, the IC50 at 5-HT2A [2] lay within 1000 to 10000 nM.
Take `CCN(CC)C(=O)[C@@H]1C=C(c2cc(OC)cc(OC)c2)CN(C)C1` (single isomer, unassigned) [Compound 6, 5-(3,5-dimethoxyphenyl)-N,N-diethyl-1-methyl-1,2,3,6-tetrahydropyridine-3-carboxamide]: in the assay with rat cortical neurons, the “Increase in Neurite Length” value is “A” and the “Increase in Neurite Number” value is “A”. On 5-HT2A [1] (setting [3]), this compound yielded an EC50 of 101 to 1000 nM. Moreover, the IC50 on 5-HT2A [2] (setting [4]) lay within 1000 to 10000 nM.
On to `CCN(CC)C(=O)[C@@H]1C=C(c2ccccc2OC)CN(C)C1` (single isomer, unassigned) [Compound 7, N,N-diethyl-5-(2-methoxyphenyl)-1-methyl-1,2,3,6-tetrahydropyridine-3-carboxamide], for which, in the assay with rat cortical neurons, the “Increase in Neurite Length” value is “B” and the “Increase in Neurite Number” value was “B”. This compound also came in with an EC50 on 5-HT2A [1] (setting [3]) of 10 to 100 nM. On 5-HT2A [2] (setting [4]), this compound came in with an IC50 of 10 to 100 nM.
As to `CN(C)C1Cc2cccc3ccn(c23)C1` (single isomer, unassigned) [Compound 15, N,N-dimethyl-5,6-dihydro-4H-pyrrolo[3,2,1-ij]quinolin-5-amine], in the assay on rat cortical neurons, the “Increase in Neurite Length” value is listed as “B” and the “Increase in Neurite Number” value is listed as “B”. Further, the EC50 at 5-HT2A [1] (read-out: 5-HT2A IPOne Agonism Activity, CHO-K1 cells, 60 min at 37° C.) is above 10000 nM. Further, the IC50 on 5-HT2A [2] (read-out: 5-HT2A Radioligand Binding Activity, competition with [3H]-DOI, membrane extracts) was 101 to 1000 nM.
Compound `NC1Cc2cc(Cl)cc3ccn(c23)C1` (stereo not shown) [Compound 21, 8-chloro-5,6-dihydro-4H-pyrrolo[3,2,1-ij]quinolin-5-amine] yielded an EC50 at 5-HT2A [1] of 1000 to 10000 nM. This compound returned an IC50 on 5-HT2A [2] of 1000 to 10000 nM.
As for `CN(C)C1Cc2cccc3ccn(c23)C1` (single isomer, unassigned) [Compound 14, N,N-dimethyl-5,6-dihydro-4H-pyrrolo[3,2,1-ij]quinolin-5-amine], in the assay with rat cortical neurons, the “Increase in Neurite Length” value is given as “A” and the “Increase in Neurite Number” value is “A”. This compound also displayed an EC50 on 5-HT2A [1] above 10000 nM. Besides, the IC50 at 5-HT2A [2] lay within 101 to 1000 nM.
In the case of `NC1Cc2cccc3ccn(c23)C1` (stereo not shown) [Compound 13, 5,6-dihydro-4H-pyrrolo[3,2,1-ij]quinolin-5-amine], in the assay on rat cortical neurons, the “Increase in Neurite Length” value is listed as “A” and the “Increase in Neurite Number” value is listed as “A”. Besides, on 5-HT2A [1], the EC50 is above 10000 nM. For the same compound, the IC50 at 5-HT2A [2] lay in the range of 1000 to 10000 nM.
On to `CCN(CC)C(=O)[C@@H]1C=C(c2cc(OC)cc(OC)c2)CN(C)C1` (single isomer, unassigned) [Compound 5, 5-(3,5-dimethoxyphenyl)-N,N-diethyl-1-methyl-1,2,3,6-tetrahydropyridine-3-carboxamide], for which, in the assay with rat cortical neurons, the “Increase in Neurite Length” value is reported as “A” and the “Increase in Neurite Number” value is given as “A”. Besides, the EC50 on 5-HT2A [1] (setting [3]) fell in the range of 10 to 100 nM. This compound also yielded an IC50 at 5-HT2A [2] (setting [4]) of 101 to 1000 nM.
Take `CCN(CC)C1Cc2cccc3ccn(c23)C1` (stereo not shown) [Compound 16, N,N-diethyl-5,6-dihydro-4H-pyrrolo[3,2,1-]quinolin-5-amine]: in the assay with rat cortical neurons, the “Increase in Neurite Length” value is reported as “A” and the “Increase in Neurite Number” value is recorded as “A”. The compound further returned an EC50 on 5-HT2A [1] of 101 to 1000 nM. The IC50 at 5-HT2A [2] was in the range of 101 to 1000 nM.
As for `NC1Cc2cccc3[nH]cc(c23)C1` (stereo not shown) [Compound 27, 1,3,4,5-tetrahydrobenzo[cd]indol-4-amine], in the assay with rat cortical neurons, the “Increase in Neurite Length” value is on record as “A” and the “Increase in Neurite Number” value is listed as “A”. On 5-HT2A [1], the EC50 lay within 1000 to 10000 nM. Also, the IC50 on 5-HT2A [2] fell in the range of 1000 to 10000 nM.
`NC1Cc2c(F)ccc3ccn(c23)C1` (stereo not shown) [Compound 19, 7-fluoro-5,6-dihydro-4H-pyrrolo[3,2,1-ij]quinolin-5-amine] yielded an EC50 at 5-HT2A [1] above 10000 nM. For the same compound, the IC50 at 5-HT2A [2] is above 10000 nM.
`CCN(CC)C(=O)[C@@H]1C=C(c2ccccc2OC)CN(C)C1` (single isomer, unassigned) [Compound 8, N,N-diethyl-5-(2-methoxyphenyl)-1-methyl-1,2,3,6-tetrahydropyridine-3-carboxamide]: in the assay on rat cortical neurons, the “Increase in Neurite Length” value is recorded as “A” and the “Increase in Neurite Number” value is reported as “A”. The same compound returned an EC50 on 5-HT2A [1] (setting [3]) of 101 to 1000 nM. In addition, the IC50 at 5-HT2A [2] (setting [4]) was in the range of 101 to 1000 nM.
Take `CCN(CC)C(=O)[C@@H]1C=C(c2cccc3[nH]ccc23)CN(C)C1` (single isomer, unassigned) [Compound 11, N,N-diethyl-5-(1H-indol-4-yl)-1-methyl-1,2,3,6-tetrahydropyridine-3-carboxamide]: in the assay with rat cortical neurons, the “Increase in Neurite Length” value was “A” and the “Increase in Neurite Number” value is on record as “A”.
